Reference: the supplement of paper PMC10307832

Key:
Experiment in all cases: relative viability (nuclei count vs DMSO), 5 days (fraction); higher = more cells survive
[1] = compound: CO[C@@H]1[C@H](N(C)C(=O)c2ccccc2)C[C@H]2O[C@]1(C)n1c3ccccc3c3c4c(c5c6ccccc6n2c5c31)C(=O)NC4 [Midostaurin]
Summary of the method: (§1)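 Lung cancer cell lines received five library-drug doses (not always all listed) spaced by √10, pinned on vehicle-anchored 1536-well plates after an overnight stay at 37 °C. Five days later, with no medium change, nuclei were Hoechst-stained, imaged at 4× and counted with MetaXpress. Viability is treated-well nuclei relative to vehicle-well nuclei, as a median across plates. Passing plates had control CV below 25% and at least one doubling.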

[2] = compound: COc1cc(-c2nn([C@H]3CC[C@H](N4CCN(C(C)=O)CC4)CC3)c3ncnc(N)c23)ccc1NC(=O)c1cc2ccccc2n1C
Summary of the method: as §1

[3] = compound: COc1cc(-c2nn([C@H]3CC[C@H](N4CCN(C(C)=O)CC4)CC3)c3ncnc(N)c23)ccc1NC(=O)c1cc2ccccc2n1C + COc1cccc2cc(-c3nc([C@H]4CC[C@H](C(=O)O)CC4)n4ncnc(N)c34)[nH]c12 [OSI-027] (partner 0.5 µM)
Summary of the method: (§2)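 A single step with final 0.05% Triton X-100, 1% formaldehyde and 1 ug/ml Hoechst fixed the cells and stained nuclei 5 days after treatment. Lung cancer cell lines in 1536-well plates had been treated by pin tool the day after seeding with one drug alone or a fixed anchor-drug dose plus five library-drug doses (not always all listed) in √10 steps, and nuclei were counted on 4× images. Relative viability is the ratio of nuclei in treated wells to nuclei in vehicle wells, taken as the median of duplicate plates.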

[4] = compound: CO[C@@H]1[C@H](N(C)C(=O)c2ccccc2)C[C@H]2O[C@]1(C)n1c3ccccc3c3c4c(c5c6ccccc6n2c5c31)C(=O)NC4 [Midostaurin] + O=C(CCCCCCC(=O)Nc1ccccc1)NO [Vorinostat] (partner 1 µM)
Summary of the method: as §2

[5] = compound: CO[C@@H]1[C@H](N(C)C(=O)c2ccccc2)C[C@H]2O[C@]1(C)n1c3ccccc3c3c4c(c5c6ccccc6n2c5c31)C(=O)NC4 [Midostaurin] + Nc1ncn([C@H]2C[C@H](O)[C@@H](CO)O2)c(=O)n1 [Decitabine] (partner 2 µM)
Summary of the method: as §2

UMC-11
relative viability ([1]; 0.01 µM): 0.984 | relative viability ([1]; 0.03162 µM): 0.901 | relative viability ([1]; 0.1 µM): 1 | relative viability ([1]; 0.3162 µM): 0.617 | relative viability ([2]; 0.0128 µM): 1.04 | relative viability ([2]; 0.04048 µM): 0.955 | relative viability ([2]; 0.128 µM): 0.927 | relative viability ([2]; 1.28 µM): 0.84 | relative viability ([3]; first compound 0.0128 µM): 0.531 | relative viability ([3]; first compound 0.04048 µM): 0.463 | relative viability ([3]; first compound 0.128 µM): 0.474 | relative viability ([3]; first compound 1.28 µM): 0.414 | relative viability ([4]; first compound 0.01 µM): 0.424 | relative viability ([4]; first compound 0.03162 µM): 0.445 | relative viability ([4]; first compound 0.1 µM): 0.242 | relative viability ([4]; first compound 0.3162 µM): 0.187 | relative viability ([5]; first compound 0.01 µM): 0.655 | relative viability ([5]; first compound 0.03162 µM): 0.772 | relative viability ([5]; first compound 0.1 µM): 0.637 | relative viability ([5]; first compound 0.3162 µM): 0.704
